Assay results reported in US20240218022A1, “ANTI-VISTA MACROCYCLIC PEPTIDES AND COMPOSITIONS” (BRISTOL-MYERS SQUIBB COMPANY, priority 2022, published 2024).
Read-outs that look alike come from different tables or passages of the source. Starred links: 1 amine or outer side, 2 acyl side, 3 side chain; linkers in the order of their positions; H or OH if unused. Positions of bridges follow the written chain, without caps; N, C: chain ends. Non-standard residues stand in square brackets, D forms with d. Residues, ends and D or L forms follow the SMILES beside them. ξ: configuration not given here. N(3-phenylpropyl)Gly = O=C(O)CNCCCc1ccccc1; Phe(3-Me) = Cc1cccc(C[C@H](N)C(=O)O)c1; γGlu = O=C(O)[C@H](CCC(=O)[*:2])N[*:1]; 2Nal = N[C@@H](Cc1ccc2ccccc2c1)C(=O)O; NMeL = CN[C@@H](CC(C)C)C(=O)O; Ahp(2) = CCCCC[C@H](N)C(=O)O; NMeNle = CCCC[C@H](NC)C(=O)O; Tle = CC(C)(C)[C@H](N)C(=O)O; NHexGly = CCCCCCNCC(=O)O; Nle = CCCC[C@H](N)C(=O)O; Orn = NCCC[C@H](N)C(=O)O; Aun = NCCCCCCCCCCC(=O)O; ξD = NC(CC(=O)O)C(=O)O; AEEA = NCCOCCOCC(=O)O

Target: T1, mouse VISTA (mVISTA) (Mus musculus, UniProt Q9D659)
T1 construct: expressed in transfected cells; host or cells: Human embryonic kidney 293T cells
T1 sequence (Q9D659 33-308): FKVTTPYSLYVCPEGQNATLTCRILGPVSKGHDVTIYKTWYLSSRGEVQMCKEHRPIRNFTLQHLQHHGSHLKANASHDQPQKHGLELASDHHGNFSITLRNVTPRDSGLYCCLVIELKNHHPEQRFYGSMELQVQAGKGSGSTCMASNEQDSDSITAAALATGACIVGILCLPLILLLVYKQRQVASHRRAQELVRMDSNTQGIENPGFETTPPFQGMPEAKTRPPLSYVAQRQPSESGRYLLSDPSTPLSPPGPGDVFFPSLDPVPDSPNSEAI
Test: Cell-Based Binding High-Content Assay For mVISTA (HC CBA mVISTA)
Method: Cell-Based Binding High-Content Assay For mVISTA
Human embryonic kidney 293T cells (293T) expressing mouse VISTA (mVISTA) were used for the assessment of compounds competing with the binding of a biotinylated peptide. Cryopreserved cells were thawed in a 37° C. water bath and incubated overnight at a 37° C./5% CO2 incubator in assay culture media DMEM (Life Technologies Inc. Cat. No. 11995-126) supplemented with 10% (v/v) FBS (Sigma, Cat. No. F4135), 1× Penicillin/Streptomycin (Life Technologies Inc. Cat. No. 15140-122). Cells were harvested, washed and resuspended in DMEM media […]. To test compounds under “no-wash” condition, cells were seeded into PDL-coated 384 well plates (Corning, Cat. No. 356663) at 4,000 cells/20 μL. After incubating the cell plates for two hours at a 37° C./5% CO2 incubator, 125 nL of test compound was added using an ECHO. Alternatively, to test compounds under “wash” condition, test compounds were added first, followed by addition of 20 μL cells at a density of 4000 cells/well. After incubation for an hour, the media was removed, followed by addition of 20 μL of fresh media ( ), and plates were then incubated for another hour. To plates either under “no wash” or “wash” condition, the biotinylated peptide was added to a final concentration of 2 nM, and plates were incubated at room temperature for 30 minutes. Fifteen (15) μL of Alexa 647 conjugated Streptavidin (Life Tech, Cat. No. S21374), suspended at 2 μg/ml in media, was added to the assay plate and incubate for 30 minutes. Cells were fixed by adding 15 μL of formaldehyde at a final concentration of 8% (w/v) (Sigma Cat. No. 252549), 20 μg/mL Hoechst (Thermo Scientific Cat. No. 62249) in PBS for 10 minutes at room temperature. The plates were washed 3 times in dPBS, sealed, and read on a CellInsight NXT High Content Screening Platform IC903000 (Thermo Scientific). The 50% effective concentration (IC50) was calculated using the four-parameter logistic formula y=A+((B−A)/(1+((C/x)^D))), where A and B denote minimal and maximal % inhibition, respectively, C is the EC50, D is hill slope and x represent compound concentration.

[1] = the 19th table, scaffold drawing 22, read-out: HC CBA mVISTA IC50
[2] = 293T cells expressing mouse VISTA, competition with biotinylated peptide (2 nM), read-out: HC CBA mVISTA IC50

CCCCCCN1CC(=O)N[C@@H](Cc2ccc(O)cc2)C(=O)N[C@@H](CCCC)C(=O)N[C@@H](CC(N)=O)C(=O)N[C@@H](CCCNC(=N)N)C(=O)N(C)[C@@H](CCCC)C(=O)N[C@@H](CCCCC)C(=O)N2CCC[C@H]2C(=O)N[C@@H](C(C)C)C(=O)N[C@@H](CC(=O)O)C(=O)N[C@H](C(=O)N[C@@H](CO)C(=O)O)CSCC(=O)N[C@@H](Cc2ccccc2)C(=O)N[C@@H](Cc2c[nH]c3ccccc23)C(=O)N[C@@H](CC(=O)O)C1=O [Example 1406] ({CH2CO}-FWD[NHexGly]Y[Nle]NR[NMeNle][Ahp(2)]PVDCS-OH; thioether N-14)
IC50 (read-out: HC CBA mVISTA IC50): 6.4 nM

CCCCCCN1CC(=O)N[C@@H](Cc2ccc(O)cc2)C(=O)N[C@@H](CCCC)C(=O)NCC(=O)N[C@@H](CCCNC(=N)N)C(=O)N[C@@H](CC(C)C)C(=O)N[C@@H](CCCCC)C(=O)N2CCC[C@H]2C(=O)N[C@@H](C(C)C)C(=O)N[C@@H](CC(=O)O)C(=O)N[C@H](C(=O)NCC(=O)O)CSCC(=O)N[C@@H](Cc2cccc(C)c2)C(=O)N[C@@H](Cc2c[nH]c3ccccc23)C(=O)N[C@@H](CC(=O)O)C1=O [compound 1421] ({CH2CO}-[Phe(3-Me)]WD[NHexGly]Y[Nle]GRL[Ahp(2)]PVDCG-OH; thioether N-14)
IC50 [1]: 3.1 nM

CCCCCCN1CC(=O)N[C@@H](Cc2ccc(O)cc2)C(=O)N[C@@H](CCCC)C(=O)N[C@@H](CC(N)=O)C(=O)N[C@@H](CCCNC(=N)N)C(=O)N(C)[C@@H](CC(C)C)C(=O)N[C@@H](CCCCC)C(=O)N2CCC[C@H]2C(=O)N[C@@H](C(C)C)C(=O)N[C@@H](CC(=O)O)C(=O)N[C@H](C(=O)NCC(=O)O)CSCC(=O)N[C@@H](Cc2ccccc2)C(=O)N[C@@H](Cc2c[nH]c3ccccc23)C(=O)N[C@@H](CC(=O)O)C1=O [Example 1369] ({CH2CO}-FWD[NHexGly]Y[Nle]NR[NMeL][Ahp(2)]PVDCG-OH; thioether N-14)
IC50 (read-out: HC CBA mVISTA IC50): 3.5 nM

CCCCCCN1CC(=O)N[C@@H](Cc2ccc(O)cc2)C(=O)N[C@@H](CC(C)C)C(=O)NCC(=O)N[C@@H](CCCNC(=N)N)C(=O)N(C)[C@@H](CCCC)C(=O)N[C@@H](CCCCC)C(=O)N2CCC[C@H]2C(=O)N[C@@H](C(C)C)C(=O)N[C@@H](CO)C(=O)N[C@H](C(=O)NCC(=O)O)CSCC(=O)N[C@@H](Cc2ccc3ccccc3c2)C(=O)N[C@@H](Cc2ccc(O)cc2)C(=O)N[C@@H](CC(=O)O)C1=O [Ex 1291] ({CH2CO}-[2Nal]YD[NHexGly]YLGR[NMeNle][Ahp(2)]PVSCG-OH; thioether N-14)
IC50 (cell-based binding high-content assay, mVISTA, the 16th table, read-out: HC CBA mVISTA IC50): 5.1 nM

CCCCCCN1CC(=O)N[C@@H](Cc2ccc(O)cc2)C(=O)N[C@@H](CCCC)C(=O)N[C@@H](CC(N)=O)C(=O)N[C@@H](CCCNC(=N)N)C(=O)N[C@@H](CC(C)C)C(=O)N[C@@H](CCCCC)C(=O)N2CCC[C@H]2C(=O)N[C@@H](C(C)C)C(=O)N[C@@H](CC(=O)O)C(=O)N[C@H](C(=O)NCC(=O)O)CSCC(=O)N[C@@H](Cc2ccccc2)C(=O)N[C@@H](Cc2ccc(O)cc2)C(=O)N[C@@H](CC(=O)O)C1=O [Example 1020] ({CH2CO}-FYD[NHexGly]Y[Nle]NRL[Ahp(2)]PVDCG-OH; thioether N-14)
IC50 [2]: 22.5 nM

CCCCC[C@@H]1NC(=O)[C@H](CCCC)N(C)C(=O)[C@H](CCCN)NC(=O)[C@H](CC(N)=O)NC(=O)[C@H](CC(C)C)NC(=O)[C@H](Cc2ccc(O)cc2)NC(=O)CN(CCCc2ccccc2)C(=O)[C@H](CC(=O)O)NC(=O)[C@H](Cc2ccc(O)cc2)NC(=O)[C@H](Cc2ccccc2)NC(=O)CSC[C@@H](C(=O)NCC(N)=O)NC(=O)[C@H](CO)NC(=O)[C@H](C(C)(C)C)NC(=O)[C@@H]2CCCN2C1=O [Example 1084] ({CH2CO}-FYD[N(3-phenylpropyl)Gly]YLN[Orn][NMeNle][Ahp(2)]P[Tle]SCG-NH2; thioether N-14)
IC50 [2]: 37.8 nM

CCCCCCN1CC(=O)N[C@@H](Cc2ccc(O)cc2)C(=O)N[C@@H](CCCC)C(=O)N[C@@H](CC(=O)O)C(=O)N[C@@H](CCCN)C(=O)N[C@@H](CC(C)C)C(=O)N[C@@H](CCCCC)C(=O)N2CCC[C@H]2C(=O)N[C@@H](C(C)C)C(=O)N[C@@H](CC(=O)O)C(=O)N[C@H](C(=O)NC(CC(=O)O)C(N)=O)CSCC(=O)N[C@@H](Cc2ccccc2)C(=O)N[C@@H](Cc2cccc(C)c2)C(=O)N[C@@H](CC(=O)O)C1=O (stereo partly drawn) [compound 1326] ({CH2CO}-F[Phe(3-Me)]D[NHexGly]Y[Nle]D[Orn]L[Ahp(2)]PVDC[ξD]-NH2; thioether N-14)
IC50 (read-out: HC CBA mVISTA IC50): 17.5 nM

CCCCCCN1CC(=O)N[C@@H](Cc2ccc(O)cc2)C(=O)N[C@@H](CCCC)C(=O)N[C@@H](CC(=O)O)C(=O)N[C@@H](CCCN)C(=O)N[C@@H](CC(C)C)C(=O)N[C@@H](CCCCC)C(=O)N2CCC[C@H]2C(=O)N[C@@H](C(C)C)C(=O)N[C@@H](CC(=O)O)C(=O)N[C@H](C(=O)N[C@@H](CO)C(N)=O)CSCC(=O)N[C@@H](Cc2cccc(C)c2)C(=O)N[C@@H](Cc2ccc(O)cc2)C(=O)N[C@@H](CC(=O)O)C1=O [compound 1436] ({CH2CO}-[Phe(3-Me)]YD[NHexGly]Y[Nle]D[Orn]L[Ahp(2)]PVDCS-NH2; thioether N-14)
IC50 [1]: 10.6 nM

CCCCCCN1CC(=O)N[C@@H](Cc2ccc(O)cc2)C(=O)N[C@@H](CCCCC)C(=O)N[C@@H](CC(N)=O)C(=O)N[C@@H](CCCCN)C(=O)N[C@@H](CC(C)C)C(=O)N[C@@H](CCCCC)C(=O)N2CCC[C@H]2C(=O)N[C@@H](C(C)C)C(=O)N[C@@H](CO)C(=O)N[C@H](C(=O)NCC(N)=O)CSCC(=O)N[C@@H](Cc2ccccc2)C(=O)N[C@@H](Cc2ccc(O)cc2)C(=O)N[C@@H](CC(=O)O)C1=O [Example 1035] ({CH2CO}-FYD[NHexGly]Y[Ahp(2)]NKL[Ahp(2)]PVSCG-NH2; thioether N-14)
IC50 [2]: 30.4 nM

CCCCCCN1CC(=O)N[C@@H](Cc2ccc(O)cc2)C(=O)N[C@@H](CCCC)C(=O)N[C@@H](CC(N)=O)C(=O)N[C@@H](CCCNC(=N)N)C(=O)N(C)[C@@H](CCCC)C(=O)N[C@@H](CCCCC)C(=O)N2CCC[C@H]2C(=O)N[C@@H](C(C)C)C(=O)N[C@@H](CC(=O)O)C(=O)N[C@H](C(=O)NCCOCCOCC(=O)N[C@@H](CCC(=O)NCCOCCOCC(=O)NCCCCCCCCCCC(=O)O)C(=O)O)CSCC(=O)N[C@@H](Cc2ccc3ccccc3c2)C(=O)N[C@@H](Cc2c[nH]c3ccccc23)C(=O)N[C@@H](CC(=O)O)C1=O [compound 2214] ({CH2CO}-[2Nal]WD[NHexGly]Y[Nle]NR[NMeNle][Ahp(2)]PVDC[AEEA][γGlu][AEEA][Aun]-OH; thioether N-14)
IC50 (read-out: HC CBA mVISTA IC50): 32.7 nM

CCCCCCN1CC(=O)N[C@@H](Cc2ccc(O)cc2)C(=O)N[C@@H](CCCC)C(=O)N[C@@H](CC(N)=O)C(=O)N[C@@H](CCCNC(=N)N)C(=O)N(C)[C@@H](CCCC)C(=O)N[C@@H](CCCCC)C(=O)N2CCC[C@H]2C(=O)N[C@@H](C(C)C)C(=O)N[C@@H](CC(=O)O)C(=O)N[C@H](C(=O)NCC(=O)NCCOCCOCC(=O)N[C@@H](CC(=O)O)C(=O)NCCOCCOCC(=O)NCCCCCCCCCCC(=O)O)CSCC(=O)N[C@@H](Cc2ccccc2)C(=O)N[C@@H](Cc2c[nH]c3ccccc23)C(=O)N[C@@H](CC(=O)O)C1=O [compound 2010] ({CH2CO}-FWD[NHexGly]Y[Nle]NR[NMeNle][Ahp(2)]PVDCG[AEEA]D[AEEA][Aun]-OH; thioether N-14)
IC50 (cell-based binding high-content assay, mVISTA, read-out: HC CBA miPr ISTA IC50): 15.9 nM

CCCCCCN1CC(=O)N[C@@H](Cc2ccc(O)cc2)C(=O)N[C@@H](CCCC)C(=O)N[C@@H](CC(=O)O)C(=O)N[C@@H](CCCN)C(=O)N(C)[C@@H](CCCC)C(=O)N[C@@H](CCCCC)C(=O)N2CCC[C@H]2C(=O)N[C@@H](C(C)C)C(=O)N[C@@H](CC(=O)O)C(=O)N[C@H](C(=O)N[C@@H](CO)C(N)=O)CSCC(=O)N[C@@H](Cc2cccc(C)c2)C(=O)N[C@@H](Cc2c[nH]c3ccccc23)C(=O)N[C@@H](CC(=O)O)C1=O [compound 1446] ({CH2CO}-[Phe(3-Me)]WD[NHexGly]Y[Nle]D[Orn][NMeNle][Ahp(2)]PVDCS-NH2; thioether N-14)
IC50 [1]: 9.1 nM
